Numbers after ± are expanded uncertainties.
Conditions: Crystal; DTA

Normal melting temperature: 193.00 ± 1 °C
Structure (SMILES): NC(=O)N1c2ccccc2C=Cc2ccccc21 [carbamazepine]

— the NIST ThermoML archive (doi:10.1021/je8002157)
